This assay deals with PfAtg8 WT. It counts as binding, P. falciparum. Conditions: for WTRU/NOISE (response divided by overall noise, WT): pH 8.
Where [1] appears, read: ratio of WT to K19E/K47E normalized response, hit threshold at least 1.5.

Where two headings read alike, the source gives them in different places.

The text below walks through data of article PMC3496014 (Journal of structural biology, 2012).

As to `O=c1ccc2cc(O)c(O)cc2o1` [Fragment 268, 6,7-dihydroxycoumarin], the “(WTRU/NOISE)/(MutRU/NOISE)” value is 3.73 and the “WTRU/NOISE (response divided by overall noise, WT)” value is given as 1.79.
Turning to `Oc1ccc(O)c(O)c1` [Fragment 408, 1,2,4-benzenetriol], the “WTRU/NOISE (response divided by overall noise, WT)” value was found to be 5.33. Also, under setting [1], the “(WTRU/NOISE)/(MutRU/NOISE)” value was determined as 3.56.
Take `Oc1cccc(O)c1O` [Fragment 410, 1,2,3-benzenetriol]: the “WTRU/NOISE (response divided by overall noise, WT)” value stood at 22.79. Also, the “(WTRU/NOISE)/(MutRU/NOISE)” value under setting [1] was 6.19.
`O=[N+]([O-])c1ccc(Cl)c2nonc12` [Fragment 470, 4-chloro-7-nitrobenzofurazan]: the “(WTRU/NOISE)/(MutRU/NOISE)” value under setting [1] was 1.52.
`O=[N+]([O-])c1ccc(O)c(O)c1` [Fragment 537, 4-nitrocatechol]: the “WTRU/NOISE (response divided by overall noise, WT)” value is reported as 2.39. For the same compound, the “(WTRU/NOISE)/(MutRU/NOISE)” value under setting [1] was found to be 1.90.
The corresponding values for `O=C1CC(=O)c2ccccc21` [Fragment 792, 1,3-indandione] are 2.38 and 2.15.
